According to patent US20260374756A1, “HETEROCYCLIC COMPOUNDS AS INHIBITORS OF MONOACYLGLYCEROL LIPASE (MAGL)” (Hoffmann-La Roche Inc., priority 2022, published 2026):

Target: T1, hMAGL (Homo sapiens, UniProt Q99685)
T1 sequence (Q99685 1-303): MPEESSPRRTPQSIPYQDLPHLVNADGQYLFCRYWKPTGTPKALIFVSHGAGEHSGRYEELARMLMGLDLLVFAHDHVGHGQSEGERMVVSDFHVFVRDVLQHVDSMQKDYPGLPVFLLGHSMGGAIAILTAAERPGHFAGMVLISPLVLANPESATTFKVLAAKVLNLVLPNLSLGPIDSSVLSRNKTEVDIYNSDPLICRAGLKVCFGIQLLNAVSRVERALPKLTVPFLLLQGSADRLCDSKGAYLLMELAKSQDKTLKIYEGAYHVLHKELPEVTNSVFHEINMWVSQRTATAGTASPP
Assay: 2-AG assay: MAGL inhibition, hydrolysis of 2-arachidonoylglycerol to arachidonic acid followed by mass spectrometry
Type: biochemical
How it was run: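 MAGL preincubated with compound 15 min at RT in 50 mM Tris, 1 mM EDTA, 0.01% Tween-20, 2.5% DMSO; reaction started with 8 μM 2-AG (final), […], 30 min at RT. Quenched with acetonitrile containing d8-arachidonic acid; arachidonic acid quantified by RapidFire SPE-triple quad MS as arachidonic acid/d8 ratio.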

## O=C(N1CC2(CC(Cc3n[nH]c(C4(C(F)(F)F)CC4)n3)C2)C1)N1CC2(CC(n3cnc(C(F)F)n3)C2)C1 [Example 335, [6-[3-(difluoromethyl)-1,2,4-triazol-1-yl]-2-azaspiro[3.3]heptan-2-yl]-[6-[[5-[1-(trifluoromethyl)cyclopropyl]-1H-1,2,4-triazol-3-yl]methyl]-2-azaspiro[3.3]heptan-2-yl]methanone]
  IC50: 9.06 nM

## O=C(N1CC2(CC(Cc3n[nH]c(C(F)(F)F)n3)C2)C1)N1CC2(CC(n3cnc(C(F)F)n3)C2)C1 [Example 320, [6-[3-(difluoromethyl)-1,2,4-triazol-1-yl]-2-azaspiro[3.3]heptan-2-yl]-[6-[[5-(trifluoromethyl)-1H-1,2,4-triazol-3-yl]methyl]-2-azaspiro[3.3]heptan-2-yl]methanone]
  IC50: 52.8 nM

## Cc1cc(C(F)F)nn1CC1CC2(C1)CN(C(=O)N1CC3(CC(n4cnc(C(F)(F)F)n4)C3)C1)C2 [Example 94]
  IC50: 0.4 nM

## CC(C)(C)c1csc(CN2CC3(C2)CN(C(=O)N2CC4(CC(n5cnc(C(F)(F)F)n5)C4)C2)C3)n1 [Example 200, [6-[(4-tert-butylthiazol-2-yl)methyl]-2,6-diazaspiro[3.3]heptan-2-yl]-[6-[3-(trifluoromethyl)-1,2,4-triazol-1-yl]-2-azaspiro[3.3]heptan-2-yl]methanone]
  IC50: 1.16 nM

## O=C(N1CC2(CC(Cc3nsc(C(F)(F)F)n3)C2)C1)N1CC2(CC(n3cnc(C4(O)CC4)n3)C2)C1 [Example 22, [6-[3-(1-hydroxycyclopropyl)-1,2,4-triazol-1-yl]-2-azaspiro[3.3]heptan-2-yl]-[6-[[5-(trifluoromethyl)-1,2,4-thiadiazol-3-yl]methyl]-2-azaspiro[3.3]heptan-2-yl]methanone]
  IC50: 2.57 nM

## O=C(N1CC2(CC(Cn3cc(C(F)(F)F)nn3)C2)C1)N1CC2(CC(c3cc(C4CC4)n[nH]3)C2)C1 [Example 103, [6-(3-cyclopropyl-1H-pyrazol-5-yl)-2-azaspiro[3.3]heptan-2-yl]-[6-[[4-(trifluoromethyl)triazol-1-yl]methyl]-2-azaspiro[3.3]heptan-2-yl]methanone]
  IC50: 1.63 nM

## O=C(N1CC2(CC(Cc3n[nH]c(C4CC4)n3)C2)C1)N1CC2(CC(n3cnc(C(F)(F)F)n3)C2)C1 [Example 303, [6-[(5-cyclopropyl-1H-1,2,4-triazol-3-yl)methyl]-2-azaspiro[3.3]heptan-2-yl]-[6-[3-(trifluoromethyl)-1,2,4-triazol-1-yl]-2-azaspiro[3.3]heptan-2-yl]methanone]
  IC50: 9.41 nM

## O=C(N1CC2(CC(n3cnc(C4CC4)n3)C2)C1)N1CC2(CN(Cc3cc(C(F)(F)F)[nH]n3)C2)C1 [Example 242, [6-(3-cyclopropyl-1,2,4-triazol-1-yl)-2-azaspiro[3.3]heptan-2-yl]-[6-[[5-(trifluoromethyl)-1H-pyrazol-3-yl]methyl]-2,6-diazaspiro[3.3]heptan-2-yl]methanone]
  IC50: 3.73 nM

## O=C(N1CC2(CCC(Cc3nnc(C(F)(F)F)[nH]3)CC2)C1)N1CC2(CC(n3cnc(C4(O)CC4)n3)C2)C1 [Example 35, [6-[3-(1-hydroxycyclopropyl)-1,2,4-triazol-1-yl]-2-azaspiro[3.3]heptan-2-yl]-[7-[[5-(trifluoromethyl)-4H-1,2,4-triazol-3-yl]methyl]-2-azaspiro[3.5]nonan-2-yl]methanone]
  IC50: 114 nM

## O=C(N1CC2(CC(Cc3n[nH]c(C4(C(F)(F)F)CC4)n3)C2)C1)N1CC2(CC(n3cnc(C4CC4)n3)C2)C1 [Example 102, [6-(3-cyclopropyl-1,2,4-triazol-1-yl)-2-azaspiro[3.3]heptan-2-yl]-[6-[[5-[1-(trifluoromethyl)cyclopropyl]-1H-1,2,4-triazol-3-yl]methyl]-2-azaspiro[3.3]heptan-2-yl]methanone]
  IC50: 0.58 nM

## Cn1nc(C2CC2)cc1CN1CC2(C1)CN(C(=O)N1CC3(CC(n4cnc(C(F)(F)F)n4)C3)C1)C2 [Example 271]
  IC50: 14.8 nM

## Cn1nc(C(F)(F)F)cc1CN1CCC2(CC1)CN(C(=O)N1CC3(CC(n4cnc(C(F)(F)F)n4)C3)C1)C2 [Example 25]
  IC50: 25.2 nM

## O=C(N1CC2(CC(Cc3cc(C4CC4)[nH]n3)C2)C1)N1CC2(CC(n3cnc(C(F)F)n3)C2)C1 [Example 342, [6-[(5-cyclopropyl-1H-pyrazol-3-yl)methyl]-2-azaspiro[3.3]heptan-2-yl]-[6-[3-(difluoromethyl)-1,2,4-triazol-1-yl]-2-azaspiro[3.3]heptan-2-yl]methanone]
  IC50: 3.26 nM

## O=C(N1CC2(CC(n3cnc(C4CC4)n3)C2)C1)N1CC2(CN(Cc3cc(C4CCC4)[nH]n3)C2)C1 [Example 274, [6-[(5-cyclobutyl-1H-pyrazol-3-yl)methyl]-2,6-diazaspiro[3.3]heptan-2-yl]-[6-(3-cyclopropyl-1,2,4-triazol-1-yl)-2-azaspiro[3.3]heptan-2-yl]methanone]
  IC50: 5.29 nM

## O=C(N1CC2(CC(n3cnc(C(F)(F)F)n3)C2)C1)N1CC2(CN(Cc3nc(C(F)(F)F)cs3)C2)C1 [Example 51]
  IC50: 17 nM

## Cn1nnc(CN2CC3(C2)CN(C(=O)N2CC4(CC(n5cnc(C6CC6)n5)C4)C2)C3)c1C(F)(F)F [Example 244, [6-(3-cyclopropyl-1,2,4-triazol-1-yl)-2-azaspiro[3.3]heptan-2-yl]-[6-[[1-methyl-5-(trifluoromethyl)triazol-4-yl]methyl]-2,6-diazaspiro[3.3]heptan-2-yl]methanone]
  IC50: 22.9 nM

## O=C(N1CC2(CC(Cc3cn[nH]c3C(F)(F)F)C2)C1)N1CC2(CC(n3cnc(C(F)(F)F)n3)C2)C1 [Example 119, [6-[[5-(trifluoromethyl)-1H-pyrazol-4-yl]methyl]-2-azaspiro[3.3]heptan-2-yl]-[6-[3-(trifluoromethyl)-1,2,4-triazol-1-yl]-2-azaspiro[3.3]heptan-2-yl]methanone]
  IC50: 0.12 nM

## O=C(N1CC2(CC(n3cnc(C(F)(F)F)n3)C2)C1)N1CC2(CN(Cc3cnn(C(F)(F)F)c3)C2)C1 [Example 181, [6-[[1-(trifluoromethyl)pyrazol-4-yl]methyl]-2,6-diazaspiro[3.3]heptan-2-yl]-[6-[3-(trifluoromethyl)-1,2,4-triazol-1-yl]-2-azaspiro[3.3]heptan-2-yl]methanone]
  IC50: 133 nM

## O=C(N1CC2(CC(n3cnc(C4CC4)n3)C2)C1)N1CC2(CN(Cc3ccn(C(F)(F)F)n3)C2)C1 [Example 117, [6-(3-cyclopropyl-1,2,4-triazol-1-yl)-2-azaspiro[3.3]heptan-2-yl]-[6-[[1-(trifluoromethyl)pyrazol-3-yl]methyl]-2,6-diazaspiro[3.3]heptan-2-yl]methanone]
  IC50: 16 nM

## O=C(N1CC2(CC(Cc3cn[nH]c3C(F)(F)F)C2)C1)N1CC2(CC(n3cnc(C(F)F)n3)C2)C1 [Example 346, [6-[3-(difluoromethyl)-1,2,4-triazol-1-yl]-2-azaspiro[3.3]heptan-2-yl]-[6-[[5-(trifluoromethyl)-1H-pyrazol-4-yl]methyl]-2-azaspiro[3.3]heptan-2-yl]methanone]
  IC50: 1.99 nM

## O=C(N1CC2(CC(Cc3cc(C4(C(F)(F)F)CC4)[nH]n3)C2)C1)N1CC2(CC(n3cnc(C(F)F)n3)C2)C1 [Example 352, [6-[3-(difluoromethyl)-1,2,4-triazol-1-yl]-2-azaspiro[3.3]heptan-2-yl]-[6-[[5-[1-(trifluoromethyl)cyclopropyl]-1H-pyrazol-3-yl]methyl]-2-azaspiro[3.3]heptan-2-yl]methanone]
  IC50: 0.6 nM

## O=C(N1CC2(CCN(Cc3cc(C(F)(F)F)sn3)CC2)C1)N1CC2(CC(n3cnc(C4CC4)n3)C2)C1 [Example 47, [6-(3-cyclopropyl-1,2,4-triazol-1-yl)-2-azaspiro[3.3]heptan-2-yl]-[7-[[5-(trifluoromethyl)isothiazol-3-yl]methyl]-2,7-diazaspiro[3.5]nonan-2-yl]methanone]
  IC50: 1.86 nM

## O=C(N1CC2(CC(n3cnc(C(F)(F)F)n3)C2)C1)N1CC2(CN(Cc3cnn(C(F)F)c3)C2)C1 [Example 262, [6-[[1-(difluoromethyl)pyrazol-4-yl]methyl]-2,6-diazaspiro[3.3]heptan-2-yl]-[6-[3-(trifluoromethyl)-1,2,4-triazol-1-yl]-2-azaspiro[3.3]heptan-2-yl]methanone]
  IC50: 539 nM

## Cc1c(CN2CC3(C2)CN(C(=O)N2CC4(CC(n5cnc(C6CC6)n5)C4)C2)C3)cnn1CC(F)(F)F [Example 115, [6-(3-cyclopropyl-1,2,4-triazol-1-yl)-2-azaspiro[3.3]heptan-2-yl]-[6-[[5-methyl-1-(2,2,2-trifluoroethyl)pyrazol-4-yl]methyl]-2,6-diazaspiro[3.3]heptan-2-yl]methanone]
  IC50: 38.2 nM

## O=C(N1CC2(CC(Cc3cc(C(F)F)n[nH]3)C2)C1)N1CC2(CC(n3cnc(C4CC4)n3)C2)C1 [Example 296, [6-(3-cyclopropyl-1,2,4-triazol-1-yl)-2-azaspiro[3.3]heptan-2-yl]-[6-[[3-(difluoromethyl)-1H-pyrazol-5-yl]methyl]-2-azaspiro[3.3]heptan-2-yl]methanone]
  IC50: 0.17 nM

## Cn1ncc(OC2CC3(C2)CN(C(=O)N2CC4(CC(n5cnc(C(F)(F)F)n5)C4)C2)C3)c1C(F)(F)F [Example 246, [6-[1-methyl-5-(trifluoromethyl)pyrazol-4-yl]oxy-2-azaspiro[3.3]heptan-2-yl]-[6-[3-(trifluoromethyl)-1,2,4-triazol-1-yl]-2-azaspiro[3.3]heptan-2-yl]methanone]
  IC50: 3.98 nM
